Assay results taken from ChEMBL document CHEMBL1649315, “Extended-spectrum cephalosporinase in Acinetobacter baumannii” (Antimicrob Agents Chemother, 2010).
Converted amounts (≈) assume the structure as drawn.

Assays:
Acinetobacter baumannii [1] = assay: Ratio of Kcat to Ki for Acinetobacter baumannii ADC-33 beta-lactamase to Kcat to Ki for Acinetobacter baumannii ADC-11 beta-lactamase
ADC-11 = ADC-11 (Acinetobacter baumannii, UniProt D6NSM8); assay: Activity of Acinetobacter baumannii ADC-11 beta-lactamase
Beta-lactamase ADC-33 = Beta-lactamase ADC-33 (Acinetobacter baumannii, UniProt B2ZTR6); assay: Activity of Acinetobacter baumannii ADC-33 beta-lactamase
Acinetobacter baumannii [2] = assay: Antimicrobial activity against Acinetobacter baumannii KI by Etest method; format: functional
Escherichia coli [3] = assay: Antimicrobial activity against Escherichia coli TOP10 harboring pADC-33 plasmid with entire blaAmpC gene by Etest method; format: functional
Escherichia coli [4] = assay: Antimicrobial activity against Escherichia coli TOP10 harboring pADC-11 plasmid with entire blaAmpC gene by Etest method; format: functional
Escherichia coli [5] = assay: Antimicrobial activity against Escherichia coli TOP10 harboring pADC-11 plasmid carrying entire blaAmpC gene with alanine residue insertion at 215 position by Etest method; format: functional
Escherichia coli [6] = assay: Antimicrobial activity against Escherichia coli TOP10 harboring pADC-11 plasmid by Etest method; format: functional
Acinetobacter baumannii [7] = assay: Antimicrobial activity against Acinetobacter baumannii CIP70.10 by Etest method; format: functional
Acinetobacter baumannii [8] = assay: Antimicrobial activity against Acinetobacter baumannii beta-lactamase by Etest method; format: functional
Escherichia coli [9] = assay: Antimicrobial activity against Escherichia coli TOP10 harboring pADC-33 plasmid carrying entire blaAmpC gene with alanine residue deletion at 215 position and R210P substitution by Etest method; format: functional
Escherichia coli [10] = assay: Antimicrobial activity against Escherichia coli TOP10 harboring pADC-33 plasmid by Etest method; format: functional
Escherichia coli [11] = assay: Antimicrobial activity against Escherichia coli TOP10 harboring pADC-33 plasmid with entire blaAmpC gene with alanine residue deletion at 215 position by Etest method; format: functional
Acinetobacter baumannii [12] = assay: Antimicrobial activity against Acinetobacter baumannii AYE expressing VEB-1 gene by Etest method; format: functional
Acinetobacter baumannii [13] = assay: Antimicrobial activity against Acinetobacter baumannii expressing ESAC beta-lactamase by Etest method; format: functional
Escherichia coli [14] = assay: Antimicrobial activity against Escherichia coli TOP10 harboring pADC-11 plasmid carrying entire blaAmpC gene with alanine residue insertion at 215 position and R210P substitution by Etest method; format: functional
Acinetobacter baumannii [15] = assay: Ratio of Kcat to Km for Acinetobacter baumannii ADC-33 beta-lactamase to Kcat to Km for Acinetobacter baumannii ADC-11 beta-lactamase
Escherichia coli [16] = assay: Antimicrobial activity against Escherichia coli TOP10 harboring pADC-33 plasmid by Etest method in presence of clavulanic acid; format: functional
Escherichia coli [17] = assay: Antimicrobial activity against Escherichia coli TOP10 harboring pADC-11 plasmid carrying entire blaAmpC gene with alanine residue deletion at 215 position and R210P substitution by Etest method in presence of clavulanic acid; format: functional
Escherichia coli [18] = assay: Antimicrobial activity against Escherichia coli TOP10 harboring pADC-33 plasmid carrying entire blaAmpC gene with alanine residue deletion at 215 position by Etest method in presence of clavulanic acid; format: functional
Escherichia coli [19] = assay: Antimicrobial activity against Escherichia coli TOP10 harboring pADC-11 plasmid by Etest method in presence of clavulanic acid; format: functional
Acinetobacter baumannii [20] = assay: Antimicrobial activity against Acinetobacter baumannii AYE expressing VEB-1 gene by Etest method in presence of clavulanic acid; format: functional
Escherichia coli [21] = assay: Antimicrobial activity against Escherichia coli TOP10 harboring pADC-11 plasmid carrying entire blaAmpC gene with alanine residue insertion at 215 position by Etest method in presence of clavulanic acid; format: functional
Acinetobacter baumannii [22] = assay: Antimicrobial activity against Acinetobacter baumannii KI by Etest method in presence of clavulanic acid; format: functional
Escherichia coli [23] = assay: Antimicrobial activity against Escherichia coli TOP10 harboring pADC-50 plasmid by Etest method in presence of clavulanic acid; format: functional
Escherichia coli [24] = assay: Antimicrobial activity against Escherichia coli TOP10 harboring pADC-33 plasmid carrying entire blaAmpC gene by Etest method in presence of clavulanic acid; format: functional
Escherichia coli [25] = assay: Antimicrobial activity against Escherichia coli TOP10 harboring pADC-11 plasmid carrying entire blaAmpC gene by Etest method in presence of clavulanic acid; format: functional
Escherichia coli [26] = assay: Antimicrobial activity against Escherichia coli TOP10 harboring pADC-33 plasmid carrying entire blaAmpC gene with alanine residue deletion at 215 position and R210P substitution by Etest method in presence of clavulanic acid; format: functional
Escherichia coli [27] = assay: Antimicrobial activity against Escherichia coli TOP10 harboring pADC-50 plasmid by Etest method; format: functional
Escherichia coli [28] = assay: Antimicrobial activity against Escherichia coli TOP10 harboring pTOPO plasmid by Etest method; format: functional
Acinetobacter baumannii [29] = assay: Antimicrobial activity against Acinetobacter baumannii CIP70.10 by Etest method in presence of clavulanic acid; format: functional
Escherichia coli [30] = assay: Antimicrobial activity against Escherichia coli TOP10 harboring pTOPO plasmid by Etest method in presence of clavulanic acid; format: functional

With `CO[C@@]1(NC(=O)Cc2cccs2)C(=O)N2C(C(=O)O)=C(COC(N)=O)CS[C@@H]21` [CEFOXITIN] the kcat/Km (Acinetobacter baumannii [1]) was 1 µM⁻¹ s⁻¹, the Ki (ADC-11) was 500 nM and the Ki (Beta-lactamase ADC-33) was 100 nM.

Work on `C[C@H]1[C@H](NC(=O)/C(=N\OC(C)(C)C(=O)O)c2csc(N)n2)C(=O)N1S(=O)(=O)O` [AZTREONAM] yielded an MIC (Acinetobacter baumannii [2]) of 256 µg/mL (≈ 588 µM), an MIC (Escherichia coli [3]) of 256 µg/mL (≈ 588 µM) and an MIC (Escherichia coli [4]) of 2 µg/mL (≈ 4.59 µM). For the same compound, the MIC (Escherichia coli [5]) was 16 µg/mL (≈ 36.7 µM), the MIC (Escherichia coli [6]) was 0.094 µg/mL (≈ 0.216 µM) and the MIC (Acinetobacter baumannii [7]) was 8 µg/mL (≈ 18.4 µM). It also gave an MIC (Acinetobacter baumannii [8]) of 12 µg/mL (≈ 27.6 µM), an MIC (Escherichia coli [9]) of 2 µg/mL (≈ 4.59 µM) and an MIC (Escherichia coli [10]) of 8 µg/mL (≈ 18.4 µM). For the same compound, the Ki (ADC-11) was 3000 nM, the MIC (Escherichia coli [11]) was 6 µg/mL (≈ 13.8 µM) and the Ki (Beta-lactamase ADC-33) was 7 nM. The MIC (Acinetobacter baumannii [12]) was > 256 µg/mL, the MIC (Acinetobacter baumannii [13]) was > 256 µg/mL and the MIC (Escherichia coli [14]) was 256 µg/mL (≈ 588 µM).

In the case of `O=C(Cc1cccs1)N[C@@H]1C(=O)N2C(C(=O)[O-])=C(C[n+]3ccccc3)CS[C@H]12`, the kcat/Km (Acinetobacter baumannii [15]) is reported as 0.8 µM⁻¹ s⁻¹.

Work on `CC1(C)S[C@@H]2[C@H](NC(=O)Cc3ccccc3)C(=O)N2[C@H]1C(=O)O` yielded a kcat/Km (Acinetobacter baumannii [15]) of 1.3 µM⁻¹ s⁻¹.

For `CC1(C)S[C@@H]2[C@H](NC(=O)[C@H](C(=O)O)c3ccsc3)C(=O)N2[C@H]1C(=O)O` [TICARCILLIN], the MIC (Acinetobacter baumannii [2]) was > 256 µg/mL, the MIC (Escherichia coli [16]) was 64 µg/mL and the MIC (Escherichia coli [3]) was > 256 µg/mL. For the same compound, the MIC (Escherichia coli [4]) was 256 µg/mL (≈ 666 µM), the MIC (Escherichia coli [5]) was > 256 µg/mL and the MIC (Escherichia coli [17]) was > 256 µg/mL. For the same compound, the MIC (Escherichia coli [6]) was 8 µg/mL (≈ 20.8 µM), the MIC (Acinetobacter baumannii [7]) was 8 µg/mL (≈ 20.8 µM) and the MIC (Escherichia coli [18]) was 128 µg/mL. The MIC (Escherichia coli [19]) was 8 µg/mL, the MIC (Escherichia coli [9]) was 128 µg/mL (≈ 333 µM) and the MIC (Acinetobacter baumannii [20]) was 128 µg/mL. For the same compound, the MIC (Escherichia coli [10]) was 64 µg/mL (≈ 166 µM), the MIC (Escherichia coli [21]) was > 256 µg/mL and the MIC (Escherichia coli [11]) was 128 µg/mL (≈ 333 µM). For the same compound, the MIC (Acinetobacter baumannii [22]) was 64 µg/mL, the MIC (Escherichia coli [23]) was 8 µg/mL and the MIC (Escherichia coli [24]) was > 256 µg/mL. It also gave an MIC (Escherichia coli [25]) of 256 µg/mL, an MIC (Escherichia coli [26]) of 128 µg/mL and an MIC (Escherichia coli [27]) of 8 µg/mL (≈ 20.8 µM). The MIC (Escherichia coli [28]) was 2 µg/mL (≈ 5.2 µM), the MIC (Acinetobacter baumannii [12]) was > 256 µg/mL and the MIC (Acinetobacter baumannii [29]) was 8 µg/mL. For the same compound, the MIC (Escherichia coli [30]) was 2 µg/mL and the MIC (Escherichia coli [14]) was > 256 µg/mL.

With `CC(=O)OCC1=C(C(=O)O)N2C(=O)[C@@H](NC(=O)Cc3cccs3)[C@H]2SC1` the kcat/Km (Acinetobacter baumannii [15]) was 0.5 µM⁻¹ s⁻¹.

`C[C@@H](O)[C@H]1C(=O)N2C(C(=O)O)=C(S[C@@H]3CN[C@H](C(=O)N(C)C)C3)[C@H](C)[C@H]12` [MEROPENEM] gave an MIC (Acinetobacter baumannii [2]) of 2 µg/mL (≈ 5.22 µM), an MIC (Escherichia coli [3]) of 0.032 µg/mL (≈ 0.0834 µM) and an MIC (Escherichia coli [4]) of 0.032 µg/mL (≈ 0.0834 µM). The MIC (Escherichia coli [5]) was 0.032 µg/mL (≈ 0.0834 µM), the MIC (Escherichia coli [6]) was 0.023 µg/mL (≈ 0.06 µM) and the MIC (Acinetobacter baumannii [7]) was 0.25 µg/mL (≈ 0.652 µM). It also gave an MIC (Escherichia coli [9]) of 0.032 µg/mL (≈ 0.0834 µM), an MIC (Escherichia coli [10]) of 0.023 µg/mL (≈ 0.06 µM) and an MIC (Escherichia coli [11]) of 0.032 µg/mL (≈ 0.0834 µM). For the same compound, the MIC (Escherichia coli [27]) was 0.023 µg/mL (≈ 0.06 µM), the MIC (Escherichia coli [28]) was 0.023 µg/mL (≈ 0.06 µM) and the MIC (Acinetobacter baumannii [12]) was 1 µg/mL (≈ 2.61 µM). The MIC (Escherichia coli [14]) was 0.032 µg/mL (≈ 0.0834 µM).

With `CC(C)(O/N=C(\C(=O)N[C@@H]1C(=O)N2C(C(=O)[O-])=C(C[n+]3ccccc3)CS[C@H]12)c1csc(N)n1)C(=O)O` [CEFTAZIDIME] the MIC (Acinetobacter baumannii [2]) was > 256 µg/mL, the kcat/Km (Acinetobacter baumannii [15]) was 150 µM⁻¹ s⁻¹ and the MIC (Escherichia coli [3]) was > 256 µg/mL. For the same compound, the MIC (Escherichia coli [4]) was 8 µg/mL (≈ 14.6 µM), the MIC (Escherichia coli [5]) was > 256 µg/mL and the MIC (Escherichia coli [6]) was 0.5 µg/mL (≈ 0.915 µM). The MIC (Acinetobacter baumannii [7]) was 2 µg/mL (≈ 3.66 µM), the MIC (Escherichia coli [9]) was 8 µg/mL (≈ 14.6 µM) and the MIC (Escherichia coli [10]) was > 256 µg/mL. It also gave an MIC (Escherichia coli [11]) of 16 µg/mL (≈ 29.3 µM), an MIC (Escherichia coli [27]) of 0.5 µg/mL (≈ 0.915 µM) and an MIC (Escherichia coli [28]) of 0.125 µg/mL (≈ 0.229 µM). The MIC (Acinetobacter baumannii [12]) was > 256 µg/mL and the MIC (Escherichia coli [14]) was > 256 µg/mL.
